From patent US5382572A, “Alkyl and acyl substituted quinolines” (Schering Corporation, priority 1993, dated 1995)
Where two headings read alike, the source gives them in different places.

Legend:
HSV-2 (strain MS) = assay: HSV-β-gal assay: transient expression of beta-galactosidase in transfected HeLa cells superinfected with HSV-2; format: cell-based; settings: Human alphaherpesvirus 2, HeLa, 24 h, inhibition of beta-galactosidase expression, MOI 5 pfu/cell, read-out: ANTI-HSV ACTIVITY HSV-β-GAL ASSAY IC50
Procedure: HeLa and Vero cell cultures were maintained in Eagle's Minimal Essential Medium (EMEM) which was supplemented with glutamine, penicillin, streptomycin and 10% fetal calf serum (10% EMEM). Stock cultures of HSV-2 (strain MS available from ATCC VR-540) were grown in and harvested from Vero cells. Viral stocks were titered in Vero cells according to established procedures.
Plasmid pON 245^ori- contains the promoter of the HSV-1 thymidine kinase (tk) gene located immediately 5' of the E. coli lac Z gene. In this arrangement, the tk promoter controls transcription from the bacterial gene in transient expression assays. Additionally, an SV40 polyadenylation signal is present at the 3'-end of the lac Z gene to allow for the efficient translation of the mRNA in eucaryotic cells. The expression of beta-galactosidase in a transient assay using pON 245^ori- is dependent upon superinfection of the transfected cells with HSV. […] For example, see European Patent Application No. 8302149.5 filed Mar. 11, 1988 and published Sep. 14th 1988 as 282,330, the disclosure of which is incorporated herein by reference thereto.
HeLa cells were seeded into 96 well microtiter plates and allowed to grow to 80% confluency (approximately 35000 cells/well). One half microgram of plasmid pON 245^ori- DNA was introduced into the cells of each well by the […] precipitation technique (Grahman and Van der Eb, 1973). Four to six hours later, the cells were rinsed with Hank's Balanced Salt Solution (HBSS), overlaid with 10% EMEM and incubated at 37° C. At 24 hour post-transfection, cells were rinsed, overlaid with 10% EMEM again and re-incubated at 37° C. At 48 hours. post-transfection, cells were rinsed and overlaid with either EMEM containing 2% fetal calf serum (2% EMEM), 2% EM EM containing HSV-2 (strain MS, Multiplicity of Infection [moil =5 pfu/cell) or 2% EMEM containing HSV-2 and the appropriate concentration of the compound to be tested. Twenty-four hours later, the cells were harvested and assayed for beta-galactosidase activity as described below.
(§1) All determinations of beta-galactosidase activity were performed in 96 well microtiter plates. The intracellular level of beta-galactosidase activity in each well was determined from cell lysates of the monolayer cultures. Aliquots were assayed by incubation in the presence of beta-galactosiclasesubstrate, 4-methyl-umbelliferyl-β-D-galactoside (MUG, 125 μg/ml, Sigma), for 2 hour. The generation of fluorescent product was quantified on a Microfluor microfluorimeter (Dynatech) after addition of 0.1M glycine, pH 10.3 (Spaete and Mocarski, 1985). The inhibitory activity of a compound was plotted versus the concentration and an IC50 value (the concentration of compound required to reduce beta-galactosidase expression by 50%) was obtained for each compound tested.
Anti-HSV activity refers to the IC50 values in the HSV-β-gal assay which measures anti-viral activity in terms of inhibition of beta-galactosidase expression. The IC50 values refer to the concentration of the compound in micrograms/milliliter needed to reduce beta-galactosidase expression by 50%.

[1] = Compound toxicity assay: 3H-leucine incorporation (translational activity) in HeLa cells; format: cell-based; settings: human, reduction of leucine incorporation, read-out: CYTOTOXICITY 3H-LEU ASSAY IC50
Procedure: HeLa cells were treated with inhibitory compound for 24 hours, after which levels of translational activity were assayed.
For assay of translational activity, HeLa cultures were grown to 80% confluency in 96 well microtiter plates, treated with appropriate concentrations of compound in 2% EMEM during an overnight incubation at 37° C., then rinsed with HBSS and overlaid with […] of 2% EMEM containing 8 μCi of tritiated leucine (141 Cμ/mMol, Amersham Corp., Arlington Heights Ill.). After a 1 hour incubation at 36.5° C., the cells were rinsed twice with phosphate buffered saline (PBS) and lysed in 400 μl/well of 1×PBS, 0.5% sodium dodecyl sulphate (SDS). After a 10 min incubation at 36.5° C., the contents of the well were transferred to a well in a Millititer HA microfiltration plate (Millipore Corp., Bedford, Mass.). The TCA-insoluble proteins were precipitated onto the filter disc by a 10-minute-fixation with 5% TCA, followed by filtration under vacuum and three 10-minute-rinses with 95% ethanol. The filters were dried at room temperature, cut from the millititer plate and transferred to scintillation vials. TCA precipitable counts were assayed in 5 ml of Scintisol (Isolab, Akron, Ohio). The inhibitory activity of a compound was plotted versus the concentration and an IC50 value (that concentration of the compound required to decrease cellular translational activity by 50%) was derived for each compound.
Cytotoxicity refers to the IC50 values in the 3H-leucine (3H-Leu) incorporation. The IC50 values in this test refer to the concentration of the compound in micrograms/milliliter which reduces leucine incorporation by 50%.

CMV (strain Towne) = assay: CMV-β-Gal assay: beta-galactosidase transient expression assay with CMV; format: cell-based; settings: Human betaherpesvirus 5, read-out: ANTI-CMV ACTIVITY CMV-β-Gal ASSAY IC50, CMV strain Towne
Procedure: as §1
Human foreskin fibroblast (HHF) cell cultures were grown in 10% EMEM. CMV (strain Towne received from Stanford University) was grown and titered in HHF cells. Plasmids pON 249 and pON 241 Δ NH3, containing CMV promoter genes, were used in the β-galactosidase transient expression assay as shown above.

[2] = CMV toxicity assay: tritiated leucine (3H-Leu) assay in HFF cells; format: cell-based; settings: HFF cells (human foreskin fibroblast); read-out: CYTOTOXICITY 3H-LEU ASSAY IC50
HSV-2, strain MS = assay: Prophylactic guinea pig model of HSV-2 infection; format: in vivo; settings: test compounds 60 mg/kg s.c., T.I.D., 10 days, from 24 hours before infection; for MLS (Maximum Lesion Scores): scale of 1 (least) to 4 (severe), placebo 3; for NEUROLOGICAL DYSFUNCTIONS (percentage animals developing loss of bladder/hindlimb control): placebo 87
Procedure: The in vive assessment of anti-HSV efficacy was determined in the prophylactic guinea pig model of HSV infection described by Stansberry et al (1982). Dosing of guinea pigs comprised an initial treatment with test compound given 24 hours prior to virus infection and subsequent administration of the compound every eight hours (T.I.D.) for a total of 10 days. Test compounds were administered subcutaneously in 0.5% buffered methyl celluslose at a dose of 60 mg per kg body weight of the animal. Animals were monitored daily for the development of genital lesions and neurological symptomology, both of which were recorded and compared to the results obtained with parallel groups which received placebo or acyclovir treatment. Efficacy was evaluated for each compound by scoring the ability of the compound to ameliorate genital lesions produced by infection with HSV-2, strain MS, expressed as Maximum Lesion Scores (MLS) on a scale of 1 (least lesion) to 4 (severe lesions).

[3] = test system: antiviral activity of lidocaine or lidocaine hydrochloride; settings: added to lidocaine or lidocaine hydrochloride; Haines et al.; cited from earlier work
HSV-1 = settings: cell culture; Haines et al., U.S. Pat. No. 4,757,088; cited from earlier work
herpes virus infections = settings: mammals; Haines et al.; cited from earlier work
HSV-2 = settings: cell culture; Haines et al., U.S. Pat. No. 4,757,088; cited from earlier work
[4] = test system: HSV oral and genital lesions; settings: humans; Haines et al.; cited from earlier work

CCC(=O)Oc1c(C(OC(=O)CC)OC(=O)CC)c(=O)n(C)c2ccccc12 [Formula 1.12]
IC50 (HSV-2 (strain MS); *Repeat): 7 µg/mL | IC50 (HSV-2 (strain MS); first value): 8 µg/mL | CC50 at 24 h ([1]; *Repeat): 29 µg/mL | CC50 at 24 h ([1]; first value): 29 µg/mL

COc1ccc(OCCCOCn2c(=O)c(C(OC(C)=O)OC(C)=O)c(OC(C)=O)c3ccccc32)c(Cl)c1 [Formula 1.14]
IC50 (CMV (strain Towne); first value): 16 µg/mL | IC50 (CMV (strain Towne); second value marked * (repeat)): 18 µg/mL | IC50 (HSV-2 (strain MS); first value): 9 µg/mL | CC50 at 24 h ([1]; first value): 30 µg/mL | CC50 [2]: 50 µg/mL | MLS (Maximum Lesion Scores) (HSV-2, strain MS): 1.8 | NEUROLOGICAL DYSFUNCTIONS (percentage animals developing loss of bladder/hindlimb control) (HSV-2, strain MS): 12%

CCCCCCn1c(=O)c(C(OC(C)=O)OC(C)=O)c(OC)c2ccccc21 [Formula 1.1]
IC50 (HSV-2 (strain MS); first value): 1.4 µg/mL | CC50 at 24 h ([1]; first value): 6 µg/mL

CCCCCCCn1c(=O)c(C(OC(C)=O)OC(C)=O)c(OC(C)=O)c2ccccc21 [Formula 1.11]
IC50 (HSV-2 (strain MS); *Repeat): 10 µg/mL | IC50 (HSV-2 (strain MS); first value): 8 µg/mL | CC50 at 24 h ([1]; *Repeat): 43 µg/mL | CC50 at 24 h ([1]; first value): 25 µg/mL

COc1c(C(OC(C)=O)OC(C)=O)c(=O)n(C)c2ccccc12 [Formula 1.13]
IC50 (HSV-2 (strain MS); first value): 8 µg/mL | CC50 at 24 h ([1]; first value): 18 µg/mL

CC(C)(CO)[C@@H](O)C(=O)NCCC(=O)O [pantothenic acid]
enhancement of antiviral activity of lidocaine or lidocaine hydrochloride [3]: significantly enhances the antiviral activity

CCN(CC)CC(=O)Nc1c(C)cccc1C [lidocaine, 2-(diethylamino)-N-(2,6-dimethylphenyl)acetamide]
antiviral activity against HSV-1 (HSV-1): is an antiviral agent in cell culture against HSV-1 and HSV-2 | treatment of herpes virus infections (herpes virus infections): is able to treat herpes virus infections of mammals | antiviral activity against HSV-2 (HSV-2): is an antiviral agent in cell culture against HSV-1 and HSV-2 | treatment of HSV oral and genital lesions [4]: particularly effective in the treatment of HSV oral and genital lesions in humans

CCCCCCn1c(=O)c(C(OC(C)=O)OC(C)=O)c(OC(C)=O)c2cc(C)ccc21 [Formula 1.9]
IC50 (HSV-2 (strain MS); *Repeat): 8 µg/mL | IC50 (HSV-2 (strain MS); first value): 6 µg/mL | CC50 at 24 h ([1]; *Repeat): 37 µg/mL | CC50 at 24 h ([1]; first value): 32 µg/mL | MLS (Maximum Lesion Scores) (HSV-2, strain MS): 2.5 | NEUROLOGICAL DYSFUNCTIONS (percentage animals developing loss of bladder/hindlimb control) (HSV-2, strain MS): 75%

CC(=O)Oc1c(C(OC(C)=O)OC(C)=O)c(=O)n(-c2ccccc2)c2ccccc12 [Formula 1.7]
IC50 (HSV-2 (strain MS); *Repeat): 4 µg/mL | IC50 (HSV-2 (strain MS); first value): 4 µg/mL | CC50 at 24 h ([1]; *Repeat): 18 µg/mL | CC50 at 24 h ([1]; first value): 20 µg/mL

CC(=O)Oc1c(C(OC(C)=O)OC(C)=O)c(=O)n(Cc2ccccc2)c2ccc(OCc3ccccc3)cc12 [Formula 1.15]
IC50 (HSV-2 (strain MS); *Repeat): 10 µg/mL | IC50 (HSV-2 (strain MS); first value): 10 µg/mL | CC50 at 24 h ([1]; *Repeat): 40 µg/mL | CC50 at 24 h ([1]; first value): 29 µg/mL

Nc1nc2c(ncn2COCCO)c(=O)[nH]1 [Acyclovir, 9-[(2-hydroxyethoxy)methyl]guanine, reference compound]
MLS (Maximum Lesion Scores) (HSV-2, strain MS): 1.5 | NEUROLOGICAL DYSFUNCTIONS (percentage animals developing loss of bladder/hindlimb control) (HSV-2, strain MS): 50%
